The text below walks through data of patent US20240114902A1, “COMPOSITIONS AND METHODS FOR DETERRING OVIPOSITION BY FRUIT FLIES” (The United States of America, as represented by The …, priority 2022, published 2024).

Common to all, as to format: in vivo
Assay [1] relates to Zeugodacus cucurbitae. Put plainly: Z. cucurbitae two-choice oviposition bioassay on pumpkin juice-infused agar. Further details: key to Behavioral activity (Z. cucurbitae oviposition group): Negative: “negative” (i.e., oviposition reduced); Neutral: “neutral” (i.e., no effect on oviposition); Positive: “positive” (i.e., oviposition increased). As to conditions: for Behavioral activity (Z. cucurbitae oviposition group): individual CFFA component; for Z. cucurbitae oviposition reduction vs control agar: individual compound; for Z. cucurbitae oviposition increase vs ethanol control agar: 24 hours. As to the method:
Oviposition bioassays were conducted with mated female flies, using pumpkin juice-infused agar as an oviposition substrate. A small petri dish (60×15 mm) filled with 10 mL of 1% agar mixed in pumpkin juice was used as an oviposition substrate. The agar plates were surface-treated either with 200 μL of ethanol or 200 μL of CFFA in one of 4 doses tested (20, 2, 0.2, and 0.02 mg/200 μL of ethanol), placed into a fume hood for 10 minutes for solvent evaporation prior to use in bioassays, and positioned upside-down (i.e. treated side down) on top of the 30×30×30 cm (W×L×H) screened cage 17 cm apart from each other (i.e. one each of control and CFFA treated), allowing 20 female flies (14 to 18 day-old) to oviposit on pumpkin juice agar from the bottom through the cage screen for 24 hours. Each cage was provided with a ball of water-saturated cotton, sugar, and protein hydrolysate in separate 30 mL deli cups and two oviposition substrates-one treated with CFFA diluted in ethanol and the other treated with the ethanol control. After 24 hours, Z. cucurbitae eggs in the pumpkin agar were gently separated from the agar in water and the number of eggs were individually counted. The experiment was replicated five times per treatment. CFFA was not an effective oviposition deterrent for Z. cucurbitae which is contrary to our previous work on B. dorsalis (Roh et al., 2023a). […] CFFA components were categorized into three groups “negative” (i.e., oviposition reduced), “neutral” (i.e., no effect on oviposition), and “positive” (i.e., oviposition increased) based on bioassay outcome. Using these categories, further formulations were made to determine key bioactive CFFA components in terms of oviposition deterrence on Z. cucurbitae at the equivalent ratios and concentrations of each component found in CFFA (Zhu et al. 2018). The approach involved testing the bioactivity of the negative-component blend (4c blend) for oviposition deterrence at three different doses (2, 0.2, and 0.02 mg CFFA equivalent/agar), compared with ethanol control. Further, neutral compound is added to the negative blend i.e., ‘negative+neutral’ component blend (5c blend) to identify key compounds for oviposition deterrence. The experiment was replicated five times per treatment.

The subject of assay [2] is Bactrocera dorsalis (OFF). Put plainly: OFF two-choice cage oviposition bioassay on guava juice-infused agar. Set-up: key to Activity (OFF oviposition group): Negative: “OFF negative” (i.e., oviposition reduced); Neutral: “OFF neutral” (i.e., no effect on oviposition); Positive: “OFF positive” (i.e., oviposition increased). As to conditions: for OFF oviposition reduction vs control agar / effect on OFF oviposition vs control agar / OFF oviposition increase vs control agar: 20 mg/agar; for OFF oviposition reduction vs control agar: 3 days; for Activity (OFF oviposition group): individual CFA component; for OFF oviposition deterrence at lower dose / effect on OFF oviposition vs control agar: individual compound; for OFF oviposition deterrence at lower dose: 2 mg dose; for OFF oviposition increase vs control agar: ethanol control. The procedure:
Evaluation of oviposition deterrence of CFA: OFF oviposition bioassays were conducted using laboratory two-choice cage experiments with guava juice-infused agar as an oviposition substrate. The agar plates were prepared by pouring 30 mL of boiled agar mixture [1000 mL distilled water, 500 mL guava juice (Deans Foods, El Paso, Texas, USA), 10 g agar, 0.6 g methylparaben, 6.7 mL 95% ethanol, and 3 mL acetic acid] into a 30 mL deli plastic cup to gel. The agar was then covered with a lid to avoid desiccation. The two-choice oviposition bioassay was conducted in screened cages using 20 mated OFF females per cage (12-18 day-old; Jang E B et al., 1997, “Attraction of female oriental fruit fly, Bactrocera dorsalis, to volatile semiochemicals from leaves and extracts of a non-host plant, Panax (Polyscias guilfoylei) in laboratory and olfactometer assays,” J. Chem. Ecol. 23:1389-1401) over 3 days. Each cage was provided with a ball of water-saturated cotton, sugar, and protein hydrolysate in separate 30 mL deli cups and two guava juice agar plates-one treated with CFA diluted in hexane and the other treated with the hexane control. The agar plates were surface-treated either with 200 μL of hexane or 200 μL of CFA in one of 4 doses tested (20, 2, 0.2, and 0.02 mg/200 μL of hexane), placed into a fume hood for 10 minutes prior to use in bioassays, and positioned upside-down (i.e., treated side down) on the center of the outside top of the screened cage 17 cm apart from each other (i.e., one each of control and CFA treated), allowing female flies to oviposit on guava juice agar from the bottom through the cage screen. After three days, OFF eggs in the guava agar were gently separated from the agar in water and the number of eggs were individually counted (up to 100 eggs) or estimated volumetrically at 1 mL OFF eggs=20,000 eggs (Stephanie Gayle personal communication). The experiment was replicated six times per treatment. Determination of bioactive oviposition deterrent components from CFA: A series of bioassays was conducted to identify key deterrent components of CFA for OFF using the same two-choice bioassay design described above. […] Ethanol was used as control and for preparing dilutions of C16:0 and C18:0. Hexane was used as control and for dilutions of the other six compounds tested. Based on the outcome of these bioassays, the eight free fatty acid components were assigned to “OFF negative” (i.e., oviposition reduced), “OFF neutral” (i.e., no effect on oviposition), and “OFF positive” (i.e., oviposition increased) compound groups. Using these groupings, four different blends were formulated (indicated in Table 1), composed at the equivalent ratios and concentrations of each component found in CFA (Zhu J J et al., 2018, supra), to determine key bioactive CFA components in terms of oviposition deterrence on OFF. The approach involved testing the bioactivity of the OFF negative-component blend (4c blend) for oviposition deterrence at three different doses (2, 0.2, and 0.02 mg CFA equivalent/agar), first comparing with hexane control, then with CFA at respective equivalent doses. As the 4c blend was not as effective as CFA, a “OFF negative+OFF neutral” component blend (6c blend) was then formulated, and its effect compared with CFA at 2 and 0.2 mg CFA equivalent/agar. Two subtraction blends with one of the two OFF neutral components removed from the 6c blend (5c-i and 5c-ii blends) were formulated and compared with the 6c blend at 2 and 0.2 mg CFA equivalent/agar. The experiment was replicated four to six times per treatment.

For assay [3], the system named is Drosophila suzukii (SWD). Put plainly: SWD laboratory two-choice oviposition bioassay on raspberries. Further details: key to Behavioral activity (SWD oviposition group): Negative: “SWD negative” compounds (i.e., SWD oviposition was reduced); Neutral: “SWD neutral” compounds (i.e., no effect on oviposition). To be noted: two-choice; for Behavioral activity (SWD oviposition group): individual CFA component; for effect on SWD oviposition vs control: individual compound, 20 mg dose. The procedure: Laboratory choice test 1 Oviposition bioassays were conducted at USDA-ARS in Hilo, Hawaii using a laboratory two-choice cage experimental set-up with organic raspberries purchased from a local grocery as an oviposition substrate. For all laboratory assays listed below, the receptacles of the raspberries were stuffed with cotton to prevent flies from ovipositing on the interior of the fruit as described previously in Cha D H et al. (2021, supra). The two-choice oviposition bioassay was conducted over 24 hours in screened cages (30 cm W×30 cm L×30 cm H; BugDorm-2120 Insect tent; shop.bugdorm.com) with 30 female and 10 male SWD (7-8 days old) released per cage. Each cage was provided with cotton moistened with water in a 20 mL deli cup and two 30 mL deli cups; one with two raspberries treated with CFA diluted in hexane and the other with two raspberries treated with hexane only. Each raspberry was surface-treated either with 200 μL of hexane or 200 μL of CFA in one of three doses (20, 2, or 0.2 mg CFA/200 μL hexane), placed into a fume hood for 10 minutes or until used in the bioassay. The deli cups with the treated berries were positioned in the center of the floor of the screened cage, 17 cm apart from each other. Female flies were allowed to oviposit on the surface of raspberries for 24 hours. At the conclusion of the bioassay, each 30 mL deli cup containing two raspberries was moved into a 600 mL deli cup with a mesh cap, held for 8 days (22.1±1.9° C., 71.7±3.1% RH, 16:8 L:D), when the number of larvae and pupae were counted. The experiment was replicated four times per treatment. Laboratory choice test 2 A series of bioassays were conducted in Hilo, Hawaii to identify key bioactive deterrent components of CFA for SWD using the same two-choice bioassay described above. […] Due to solubility differences, ethanol was used as control and for dilution of C16:0 and C18:0, while hexane was used as control and for dilution of the other six compounds tested. Based on the outcome of these bioassays, the eight free fatty acid components of CFA were grouped into two groups; “SWD negative” compounds (i.e., SWD oviposition was reduced) and “SWD neutral” compounds (i.e., no effect on oviposition), and tested whether the blend of “SWD negative” compounds had the same oviposition deterrence as the CFA at their equivalent concentrations as in CFA (see Table 2). The oviposition deterrence of the blend of “SWD negative” compounds was first compared to hexane at three different doses (20, 2 and 0.2 mg CFA equivalent/raspberry) and subsequently compared to CFA at 2 mg equivalent dose.

For assay [4], the system named is Bactrocera dorsalis. The assay can be described thus: B. dorsalis spatial deterrence, two-choice traps baited with guava juice. As to conditions: tested individually. The procedure: In addition to CFA, a series of odd-numbered carbon fatty acids (C9:0 to C17:0) and fatty acid methyl esters were evaluated for the spatial deterrence to B. dorsalis that results in oviposition reduction. Table 3 below lists the fatty acid methyl esters tested for spatial repellency for Bactrocera dorsalis. […] FIG. 16A, FIG. 16C, FIG. 16E, FIG. 16G, FIG. 16I, FIG. 16K, FIG. 16M, FIG. 16O, FIG. 16Q, and FIG. 16S show the mean numbers (±SEM) of mated female B. dorsalis flies captured, and FIG. 16B, FIG. 16D, FIG. 16F, FIG. 16H, FIG. 16J, FIG. 16L, FIG. 16N, FIG. 16P, FIG. 16R, and FIG. 16T show the number of B. dorsalis eggs oviposited in traps baited with guava juice (control) and with guava juice plus one of the coconut fatty acid methyl ester compounds in two-choice bioassays. For each test, different letter on the bar indicate a significant difference by Tukey-Kramer tests at P<0.05, n=4.

For the compound `CCCCCCCC/C=C\CCCCCCCC(=O)O` [C18:1, oleic acid], the “effect on Z. cucurbitae oviposition” value in assay [1] (2 mg dose) is recorded as “either lost oviposition deterrence or increased oviposition”. Moreover, the “Behavioral activity (Z. cucurbitae oviposition group)” value in assay [1] is listed as “Negative”. For the same compound, the “Z. cucurbitae oviposition reduction vs control agar” value in assay [1] (20 mg dose) was 98.1%. Further, in assay [2], the “OFF oviposition reduction vs control agar” value came out at 100%, the “Activity (OFF oviposition group)” value is “Negative” and the “OFF oviposition deterrence at lower dose” value is listed as “maintained OFF oviposition deterrence”. In assay [3], the “Behavioral activity (SWD oviposition group)” value is reported as “Neutral” and the “effect on SWD oviposition vs control” value is listed as “did not increase or decrease SWD oviposition”.
For the compound `CCCCCCCCCCCC(=O)O` [C12:0, lauric acid], in assay [1] (20 mg dose), the “Z. cucurbitae oviposition increase vs ethanol control agar” value (shortened to “Z. cucurbitae oviposition increase”) is on record as 86.4%. The “Behavioral activity (Z. cucurbitae oviposition group)” value in assay [1] is given as “Positive”. In assay [2], the “Activity (OFF oviposition group)” value was “Neutral” and the “effect on OFF oviposition vs control agar” value (“effect … vs control agar” below) is “did not affect OFF oviposition”. Further, in assay [3], the “Behavioral activity (SWD oviposition group)” value is “Neutral” and the “effect on SWD oviposition vs control” value was “did not increase or decrease SWD oviposition”.
Take `CCCCCCCCCCC(=O)OC` [C11:0 ME, Methyl undecanoate]: in assay [4], the “effect on female B. dorsalis attraction and oviposition to host fruit odors” value is “significantly reduced”.
With `CCCCCCCCCCC(=O)O` [C11:0, Undecylic acid], the “effect … vs control agar” value in assay [2] was “significantly reduced”.
In the case of `CCCCCCCCCCCCCC(=O)O` [C14:0, myristic acid], the “Z. cucurbitae oviposition increase” value in assay [1] (20 mg dose) is 77.7%. The “Behavioral activity (Z. cucurbitae oviposition group)” value in assay [1] was “Positive”. Also, in assay [2], the “Activity (OFF oviposition group)” value is “Neutral” and the “effect … vs control agar” value is listed as “did not affect OFF oviposition”. In assay [3], the “Behavioral activity (SWD oviposition group)” value was “Neutral” and the “effect on SWD oviposition vs control” value was “did not increase or decrease SWD oviposition”.
As for `CCCCC/C=C\C/C=C\CCCCCCCC(=O)O` [C18:2, linoleic acid], the “effect on Z. cucurbitae oviposition” value in assay [1] (2 mg dose) is recorded as “either lost oviposition deterrence or increased oviposition”. Besides, the “Behavioral activity (Z. cucurbitae oviposition group)” value in assay [1] is listed as “Negative”. In addition, the “Z. cucurbitae oviposition reduction vs control agar” value in assay [1] (20 mg dose) is 96.4%. Besides, in assay [2], the “OFF oviposition reduction vs control agar” value amounted to 99%, the “Activity (OFF oviposition group)” value is recorded as “Negative” and the “OFF oviposition deterrence at lower dose” value was “maintained OFF oviposition deterrence”. In addition, in assay [3], the “Behavioral activity (SWD oviposition group)” value is on record as “Neutral” and the “effect on SWD oviposition vs control” value is “did not increase or decrease SWD oviposition”.
Take `CCCCCCCCCCCCCCCCCC(=O)O` [C18:0, stearic acid]: the “effect on Z. cucurbitae oviposition” value in assay [1] (20 mg dose) is “did not affect oviposition”. In assay [1], the “Behavioral activity (Z. cucurbitae oviposition group)” value is “Neutral”. In assay [2], the “OFF oviposition increase vs control agar” value is recorded as 29% and the “Activity (OFF oviposition group)” value is listed as “Positive”. Moreover, in assay [3], the “Behavioral activity (SWD oviposition group)” value was “Neutral” and the “effect on SWD oviposition vs control” value is “did not increase or decrease SWD oviposition”.
`CCCCCCCCCCCCCCCC(=O)O` [C16:0, palmitic acid]: the “Z. cucurbitae oviposition increase” value in assay [1] (20 mg dose) was 67.3%. The “Behavioral activity (Z. cucurbitae oviposition group)” value in assay [1] is on record as “Positive”. In assay [2], the “OFF oviposition increase vs control agar” value is reported as 60% and the “Activity (OFF oviposition group)” value is given as “Positive”. Further, in assay [3], the “Behavioral activity (SWD oviposition group)” value is “Neutral” and the “effect on SWD oviposition vs control” value is given as “did not increase or decrease SWD oviposition”.
